# Test results published in the kinase profiling compilation of Christmann-Franck et al. (2016).
# Key:
# Test in all cases: radiometric filter-binding kinase assay, Kinase HotSpot
# Conditions in all cases: compound 0.5 µM; ATP 10 µM
# [1] = biological target: GRK5 (human) (UniProt P34947)
# [2] = biological target: MAP4K5 (human) (UniProt Q9Y4K4)
# [3] = biological target: FER (human) (UniProt P16591)
# [4] = biological target: ADRBK2 (human) (UniProt P35626)
# [5] = biological target: MAPKAPK3 (human) (UniProt Q16644)
# [6] = biological target: PTK2 (human) (UniProt Q05397)
# Chain of PTK2 (human) (Q05397 whole entry, looked up): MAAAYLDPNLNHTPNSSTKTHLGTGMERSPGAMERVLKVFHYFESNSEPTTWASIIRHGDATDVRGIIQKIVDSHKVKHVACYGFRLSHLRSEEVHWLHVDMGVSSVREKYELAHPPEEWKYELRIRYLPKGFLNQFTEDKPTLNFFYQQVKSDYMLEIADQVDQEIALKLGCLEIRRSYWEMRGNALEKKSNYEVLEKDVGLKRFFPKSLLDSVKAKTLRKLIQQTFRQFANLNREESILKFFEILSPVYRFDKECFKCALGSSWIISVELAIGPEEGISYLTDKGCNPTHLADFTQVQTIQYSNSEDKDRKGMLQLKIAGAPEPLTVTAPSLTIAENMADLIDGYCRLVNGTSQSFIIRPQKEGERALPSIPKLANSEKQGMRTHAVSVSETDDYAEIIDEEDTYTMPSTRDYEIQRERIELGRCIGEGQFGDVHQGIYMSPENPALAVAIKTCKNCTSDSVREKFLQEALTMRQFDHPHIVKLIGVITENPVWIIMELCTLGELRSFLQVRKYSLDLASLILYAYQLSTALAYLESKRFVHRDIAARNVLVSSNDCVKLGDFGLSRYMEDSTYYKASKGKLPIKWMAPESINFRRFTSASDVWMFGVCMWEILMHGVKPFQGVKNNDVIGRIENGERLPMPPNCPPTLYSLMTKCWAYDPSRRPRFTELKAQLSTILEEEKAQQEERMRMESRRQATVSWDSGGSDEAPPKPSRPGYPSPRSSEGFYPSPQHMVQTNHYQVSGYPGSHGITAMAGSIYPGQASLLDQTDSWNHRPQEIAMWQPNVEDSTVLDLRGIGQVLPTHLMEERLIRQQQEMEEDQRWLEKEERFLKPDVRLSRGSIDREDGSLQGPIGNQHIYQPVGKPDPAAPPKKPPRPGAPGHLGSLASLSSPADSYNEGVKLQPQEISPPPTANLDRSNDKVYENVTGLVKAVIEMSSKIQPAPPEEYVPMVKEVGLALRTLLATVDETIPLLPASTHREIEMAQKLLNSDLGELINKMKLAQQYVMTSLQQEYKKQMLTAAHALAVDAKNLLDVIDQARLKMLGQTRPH
# [7] = biological target: TEC (human) (UniProt P42680)
# [8] = biological target: PDGFRA (human) (UniProt P16234)
# [9] = biological target: DYRK3 (human) (UniProt O43781)
# [10] = biological target: PRKCE (human) (UniProt Q02156)
# [11] = biological target: PLK1 (human) (UniProt P53350)
# [12] = biological target: PRKD1 (human) (UniProt Q15139)
# [13] = biological target: ULK1 (human) (UniProt O75385)
# [14] = biological target: CSNK1E (human) (UniProt P49674)
# [15] = biological target: ROS1 (human) (UniProt P08922)
# [16] = biological target: INSRR (human) (UniProt P14616)
# [17] = biological target: AKT1 (human) (UniProt P31749)
# [18] = biological target: MAP3K8 (human) (UniProt P41279)
# Chain of MAP3K8 (human) (P41279 whole entry, looked up): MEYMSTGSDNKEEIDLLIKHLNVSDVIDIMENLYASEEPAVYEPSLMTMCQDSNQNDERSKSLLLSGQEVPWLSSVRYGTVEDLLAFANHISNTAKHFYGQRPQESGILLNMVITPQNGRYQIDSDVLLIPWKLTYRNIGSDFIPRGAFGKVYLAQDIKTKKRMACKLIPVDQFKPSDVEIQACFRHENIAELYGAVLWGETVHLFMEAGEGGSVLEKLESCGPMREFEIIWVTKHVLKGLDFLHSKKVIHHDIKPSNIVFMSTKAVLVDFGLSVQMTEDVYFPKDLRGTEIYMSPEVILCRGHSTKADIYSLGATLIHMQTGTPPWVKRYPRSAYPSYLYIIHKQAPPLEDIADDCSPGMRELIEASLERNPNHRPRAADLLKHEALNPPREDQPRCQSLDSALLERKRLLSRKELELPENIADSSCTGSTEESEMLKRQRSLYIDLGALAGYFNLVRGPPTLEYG
# [19] = biological target: MYLK2 (human) (UniProt Q9H1R3)
# [20] = biological target: STK25 (human) (UniProt O00506)
# [21] = biological target: EPHA5 (human) (UniProt P54756)
# [22] = biological target: EPHB2 (human) (UniProt P29323)
# [23] = biological target: PAK6 (human) (UniProt Q9NQU5)
# Chain of PAK6 (human) (Q9NQU5 whole entry, looked up): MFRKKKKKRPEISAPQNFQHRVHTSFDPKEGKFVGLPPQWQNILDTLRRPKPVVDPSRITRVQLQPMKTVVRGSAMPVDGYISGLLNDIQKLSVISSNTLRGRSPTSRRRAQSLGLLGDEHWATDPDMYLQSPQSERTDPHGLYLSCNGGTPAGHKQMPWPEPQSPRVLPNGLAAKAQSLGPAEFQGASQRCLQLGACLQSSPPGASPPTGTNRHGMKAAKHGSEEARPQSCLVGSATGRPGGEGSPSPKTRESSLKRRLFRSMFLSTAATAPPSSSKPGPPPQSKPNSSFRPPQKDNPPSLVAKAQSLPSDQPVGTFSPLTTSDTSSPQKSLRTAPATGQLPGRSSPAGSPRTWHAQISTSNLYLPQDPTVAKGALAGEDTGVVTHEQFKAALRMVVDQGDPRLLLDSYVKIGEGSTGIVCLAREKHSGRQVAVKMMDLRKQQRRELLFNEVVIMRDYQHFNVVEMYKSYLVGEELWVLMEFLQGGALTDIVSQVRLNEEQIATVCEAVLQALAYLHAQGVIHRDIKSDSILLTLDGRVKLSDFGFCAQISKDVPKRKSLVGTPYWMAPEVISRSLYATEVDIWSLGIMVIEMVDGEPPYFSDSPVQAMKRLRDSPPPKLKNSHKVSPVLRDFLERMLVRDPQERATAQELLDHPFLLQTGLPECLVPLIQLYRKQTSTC
# [24] = biological target: MAP3K2 (human) (UniProt Q9Y2U5)
# Chain of MAP3K2 (human) (Q9Y2U5 whole entry, looked up): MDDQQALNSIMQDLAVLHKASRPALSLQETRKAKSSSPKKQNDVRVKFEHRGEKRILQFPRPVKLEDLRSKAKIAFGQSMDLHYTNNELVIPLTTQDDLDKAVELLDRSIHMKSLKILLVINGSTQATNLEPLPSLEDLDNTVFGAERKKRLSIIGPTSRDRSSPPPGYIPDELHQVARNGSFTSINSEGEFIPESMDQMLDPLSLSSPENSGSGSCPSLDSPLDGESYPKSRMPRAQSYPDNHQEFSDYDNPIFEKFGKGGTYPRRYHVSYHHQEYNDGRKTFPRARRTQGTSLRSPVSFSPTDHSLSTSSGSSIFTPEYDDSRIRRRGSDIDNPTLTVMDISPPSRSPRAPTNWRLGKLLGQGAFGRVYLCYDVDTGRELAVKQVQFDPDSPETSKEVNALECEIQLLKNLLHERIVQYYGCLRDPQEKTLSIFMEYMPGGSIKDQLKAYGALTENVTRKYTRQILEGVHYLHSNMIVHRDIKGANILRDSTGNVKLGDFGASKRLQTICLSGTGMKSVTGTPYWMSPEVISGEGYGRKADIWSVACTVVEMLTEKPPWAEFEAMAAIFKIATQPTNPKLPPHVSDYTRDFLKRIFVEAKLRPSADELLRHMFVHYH
# [25] = biological target: CDK5 CDK5R1 p25 (human) (UniProt Q00535+Q15078)
# [26] = biological target: CSF1R (human) (UniProt P07333)
# [27] = biological target: SGK2 (human) (UniProt Q9HBY8)
# [28] = biological target: FLT3 (human) (UniProt P36888)
# Chain of FLT3 (human) (P36888 whole entry, looked up): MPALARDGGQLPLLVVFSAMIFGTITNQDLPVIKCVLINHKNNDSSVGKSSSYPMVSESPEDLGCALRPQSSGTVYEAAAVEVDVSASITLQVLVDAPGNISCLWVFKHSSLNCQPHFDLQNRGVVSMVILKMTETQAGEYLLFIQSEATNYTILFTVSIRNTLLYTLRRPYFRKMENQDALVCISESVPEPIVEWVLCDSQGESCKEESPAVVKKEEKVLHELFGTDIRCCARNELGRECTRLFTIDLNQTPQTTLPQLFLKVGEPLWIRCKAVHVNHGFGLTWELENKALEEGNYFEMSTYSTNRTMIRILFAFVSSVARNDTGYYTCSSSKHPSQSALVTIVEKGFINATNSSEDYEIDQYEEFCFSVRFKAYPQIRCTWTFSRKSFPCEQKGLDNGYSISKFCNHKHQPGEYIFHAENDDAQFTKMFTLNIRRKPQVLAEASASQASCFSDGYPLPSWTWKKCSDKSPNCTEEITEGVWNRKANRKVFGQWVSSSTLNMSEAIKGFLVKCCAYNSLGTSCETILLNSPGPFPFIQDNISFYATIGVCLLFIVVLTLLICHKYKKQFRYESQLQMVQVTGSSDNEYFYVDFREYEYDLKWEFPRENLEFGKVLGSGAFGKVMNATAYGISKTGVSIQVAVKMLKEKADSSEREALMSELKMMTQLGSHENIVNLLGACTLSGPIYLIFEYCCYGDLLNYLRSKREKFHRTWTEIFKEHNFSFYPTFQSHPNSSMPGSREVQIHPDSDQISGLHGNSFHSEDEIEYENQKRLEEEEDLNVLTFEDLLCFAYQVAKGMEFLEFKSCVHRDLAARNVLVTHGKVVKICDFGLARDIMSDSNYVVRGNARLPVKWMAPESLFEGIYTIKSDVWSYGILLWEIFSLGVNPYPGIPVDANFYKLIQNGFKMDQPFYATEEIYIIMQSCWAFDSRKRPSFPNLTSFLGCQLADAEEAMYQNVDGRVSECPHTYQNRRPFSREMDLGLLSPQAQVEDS
# [29] = biological target: PNCK (human) (UniProt Q6P2M8)
# [30] = biological target: NEK3 (human) (UniProt P51956)
# [31] = biological target: NEK1 (human) (UniProt Q96PY6)
# [32] = biological target: PRKCB2 (human) (UniProt P05771)
# [33] = biological target: INSR (human) (UniProt P06213)
# [34] = biological target: MST4 (human) (UniProt Q9P289)
# Chain of MST4 (human) (Q9P289 whole entry, looked up): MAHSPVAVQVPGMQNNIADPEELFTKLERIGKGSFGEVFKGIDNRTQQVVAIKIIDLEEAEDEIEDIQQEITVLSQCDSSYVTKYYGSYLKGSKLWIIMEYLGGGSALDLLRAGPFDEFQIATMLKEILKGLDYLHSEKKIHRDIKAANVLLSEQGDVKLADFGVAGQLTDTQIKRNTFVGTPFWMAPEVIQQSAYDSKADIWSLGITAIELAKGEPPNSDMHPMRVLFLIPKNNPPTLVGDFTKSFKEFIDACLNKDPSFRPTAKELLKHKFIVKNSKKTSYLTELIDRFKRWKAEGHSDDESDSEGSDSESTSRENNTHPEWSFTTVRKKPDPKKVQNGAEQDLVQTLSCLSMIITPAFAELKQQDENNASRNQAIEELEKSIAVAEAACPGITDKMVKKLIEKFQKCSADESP
# [35] = biological target: IKBKE (human) (UniProt Q14164)
# [36] = biological target: MUSK (human) (UniProt O15146)
# [37] = biological target: EPHA8 (human) (UniProt P29322)
# [38] = biological target: PRKCB1 (human) (UniProt P05771)
# [39] = biological target: CDC42BPA (human) (UniProt Q5VT25)
# [40] = biological target: ROCK2 (human) (UniProt O75116)
# [41] = biological target: CSNK1G2 (human) (UniProt P78368)
# [42] = biological target: KIT (human) (UniProt P10721)
# Chain of FER (human) (P16591 whole entry, looked up): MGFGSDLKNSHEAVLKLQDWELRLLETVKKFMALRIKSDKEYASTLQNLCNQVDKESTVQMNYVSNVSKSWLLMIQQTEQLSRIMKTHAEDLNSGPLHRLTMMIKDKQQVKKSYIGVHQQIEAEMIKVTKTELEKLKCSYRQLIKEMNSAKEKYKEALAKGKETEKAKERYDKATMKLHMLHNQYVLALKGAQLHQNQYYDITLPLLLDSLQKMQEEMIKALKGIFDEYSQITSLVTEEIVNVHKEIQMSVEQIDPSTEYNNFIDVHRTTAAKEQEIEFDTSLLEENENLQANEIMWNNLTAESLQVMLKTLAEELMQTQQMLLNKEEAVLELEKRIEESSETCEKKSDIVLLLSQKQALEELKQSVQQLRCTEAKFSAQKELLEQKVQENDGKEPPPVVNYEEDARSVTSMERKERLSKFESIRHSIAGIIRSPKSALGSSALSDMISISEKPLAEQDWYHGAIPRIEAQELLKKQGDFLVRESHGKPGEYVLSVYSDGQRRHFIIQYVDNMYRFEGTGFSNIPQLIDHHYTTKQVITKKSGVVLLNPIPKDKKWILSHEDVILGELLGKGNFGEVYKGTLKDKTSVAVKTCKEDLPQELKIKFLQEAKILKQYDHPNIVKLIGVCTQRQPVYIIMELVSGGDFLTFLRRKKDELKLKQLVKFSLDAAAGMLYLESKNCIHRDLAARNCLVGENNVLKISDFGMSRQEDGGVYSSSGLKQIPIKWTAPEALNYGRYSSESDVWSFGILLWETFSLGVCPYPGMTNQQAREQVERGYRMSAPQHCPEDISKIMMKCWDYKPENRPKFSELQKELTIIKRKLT
compound,measurement,setting,value
Oc1ccc(Nc2nc(-c3ccc(Cl)cc3)cs2)cc1,residual activity,[1],92%
same,residual activity,[2],110%
same,residual activity,[3],90.3%
same,residual activity,[4],97.6%
same,residual activity,[5],94.1%
same,residual activity,[6],99.4%
same,residual activity,[7],120%
same,residual activity,[8],101%
same,residual activity,[9],101%
same,residual activity,[10],99.6%
same,residual activity,[11],106%
same,residual activity,[12],96.8%
same,residual activity,[13],84.2%
same,residual activity,[14],103%
same,residual activity,[15],96.9%
same,residual activity,[16],98.8%
same,residual activity,[17],106%
same,residual activity,[18],94.9%
same,residual activity,[19],97.1%
same,residual activity,[20],113%
same,residual activity,[21],92.6%
same,residual activity,[22],101%
same,residual activity,[23],100%
same,residual activity,[24],92.1%
same,residual activity,[25],85.9%
same,residual activity,[26],104%
same,residual activity,[27],108%
same,residual activity,[28],99%
same,residual activity,[29],100%
same,residual activity,[30],98.4%
same,residual activity,[31],104%
same,residual activity,[32],94.7%
same,residual activity,[33],88.9%
same,residual activity,[34],105%
same,residual activity,[35],95.9%
same,residual activity,[36],99.5%
same,residual activity,[37],93.4%
same,residual activity,[38],101%
same,residual activity,[39],87.1%
same,residual activity,[40],99.4%
same,residual activity,[41],91.8%
same,residual activity,[42],92%
Cc1nc2cc3nc(-c4cccs4)cnc3cc2n1C,residual activity,[1],108%
same,residual activity,[2],94.8%
same,residual activity,[3],104%
same,residual activity,[4],99.2%
same,residual activity,[5],102%
same,residual activity,[6],117%
same,residual activity,[7],158%
same,residual activity,[8],23.8%
same,residual activity,[9],111%
same,residual activity,[10],108%
same,residual activity,[11],109%
same,residual activity,[12],97.7%
same,residual activity,[13],84.6%
same,residual activity,[14],94.5%
same,residual activity,[15],97.9%
same,residual activity,[16],99.5%
same,residual activity,[17],114%
same,residual activity,[18],99%
same,residual activity,[19],74.5%
same,residual activity,[20],97.3%
same,residual activity,[21],105%
same,residual activity,[22],101%
same,residual activity,[23],96.6%
same,residual activity,[24],90.2%
same,residual activity,[25],99.3%
same,residual activity,[26],63.5%
same,residual activity,[27],115%
same,residual activity,[28],27.5%
same,residual activity,[29],102%
same,residual activity,[30],108%
same,residual activity,[31],94%
same,residual activity,[32],121%
same,residual activity,[33],99.9%
same,residual activity,[34],99.3%
same,residual activity,[35],89.8%
same,residual activity,[36],90.6%
same,residual activity,[37],100%
same,residual activity,[38],107%
same,residual activity,[39],109%
same,residual activity,[40],107%
same,residual activity,[41],103%
same,residual activity,[42],40.4%
